“And” between values parts separate entries of the source, which are not always exact repeats. Equal values may be shown once. Toxic doses and inconclusive results are not listed. How the source made its calls: active means survival T/C of 150% or more; inactive means T/C below 125% in these data.
System: BDF1 mice, P388 leukemia ip, median survival T/C
Test: NCI In Vivo Anticancer Drug Screen. Data for tumor model P388 Leukemia (intraperitoneal) in B6D2F1 (BDF1) mice
Conditions: endpoint: median survival time, higher = longer survival
How it was run: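 Vehicle-dosed animals serve as the reference; survival of compound-dosed, tumour-implanted mice is divided by it.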

[1] = dose: 6.25 mg/kg/injection, schedule: Q01DX009 (ip), vehicle: saline
[2] = dose: 12.5 mg/kg/injection, schedule: Q04DX003 (ip), vehicle: saline
[3] = dose: 100.0 mg/kg/injection, schedule: Q01DX009 (ip), vehicle: saline with Tween-80
[4] = dose: 50.0 mg/kg/injection, schedule: Q01DX009 (ip), vehicle: Klucel (hydroxypropylcellulose) (HPC)
[5] = dose: 100.0 mg/kg/injection, schedule: Q01DX009 (ip), vehicle: Klucel (hydroxypropylcellulose) (HPC)
[6] = dose: 25.0 mg/kg/injection, schedule: Q04DX003 (ip), vehicle: Klucel (hydroxypropylcellulose) (HPC)
[7] = dose: 50.0 mg/kg/injection, schedule: Q04DX003 (ip), vehicle: Klucel (hydroxypropylcellulose) (HPC)
[8] = dose: 100.0 mg/kg/injection, schedule: Q04DX003 (ip), vehicle: Klucel (hydroxypropylcellulose) (HPC)

Measured: T/C

N#CN=C([S-])[S-].N#CN=C([S-])[S-].[Cu]
inactive: dose: 0.39 mg/kg/injection, schedule: Q01DX001 (ip), vehicle: saline 104 % of control | dose: 0.78 mg/kg/injection, schedule: Q01DX001 (ip), vehicle: saline 100 % of control | dose: 1.56 mg/kg/injection, schedule: Q01DX001 (ip), vehicle: saline 100 % of control | [1] 100 % of control | dose: 6.25 mg/kg/injection, schedule: Q04DX003 (ip), vehicle: saline 86 % of control | [2] 100 % of control

O.O.O.O.O=C([OH2+])CN=Cc1ccccc1O.O=C([OH2+])CN=Cc1ccccc1O.[Ni].[Ni]
inactive: dose: 4.0 mg/kg/injection, schedule: Q01DX009 (ip), vehicle: saline with Tween-80 100 % of control | dose: 6.25 mg/kg/injection, schedule: Q04DX003 (ip), vehicle: saline with Tween-80 113 % of control | dose: 8.0 mg/kg/injection, schedule: Q01DX009 (ip), vehicle: saline with Tween-80 115 % of control

O=C(/C=C/c1ccc(OCc2ccccc2)cc1)c1ccccc1Cl
inactive: dose: 50.0 mg/kg/injection, schedule: Q01DX009 (ip), vehicle: saline with Tween-80 96 % of control | [3] 96 % of control

C=CCOP(=O)(OCC=C)OCC=C
inactive: dose: 25.0 mg/kg/injection, schedule: Q01DX009 (ip), vehicle: Klucel (hydroxypropylcellulose) (HPC) 100 % of control | [4] 104 % of control | [5] 104 % of control

O=C(NN=C1CCCCC1)c1ccccc1
inactive: [6] 100 % of control | [4] 100 % of control | [7] 100 % of control | dose: 56.25 mg/kg/injection, schedule: Q01DX001 (ip), vehicle: Klucel (hydroxypropylcellulose) (HPC) 100 % of control | [5] 110 % of control | [8] 86 % of control | dose: 112.5 mg/kg/injection, schedule: Q01DX001 (ip), vehicle: Klucel (hydroxypropylcellulose) (HPC) 104 % of control | dose: 150.0 mg/kg/injection, schedule: Q04DX003 (ip), vehicle: Klucel (hydroxypropylcellulose) (HPC) 104 % of control | dose: 225.0 mg/kg/injection, schedule: Q01DX001 (ip), vehicle: Klucel (hydroxypropylcellulose) (HPC) 109 % of control | dose: 225.0 mg/kg/injection, schedule: Q04DX003 (ip), vehicle: Klucel (hydroxypropylcellulose) (HPC) 95 % of control

CCCCCCCCCCCCNC(=O)c1ccc[n+](C)c1
inactive: [1] 118 % of control | dose: 12.5 mg/kg/injection, schedule: Q01DX009 (ip), vehicle: saline 109 % of control | dose: 25.0 mg/kg/injection, schedule: Q01DX009 (ip), vehicle: saline 113 % of control

c1ccc2c(c1)ccc1c[n+]3ccccc3cc12
inactive: dose: 0.25 mg/kg/injection, schedule: Q01DX009 (ip), vehicle: saline 90 % of control | dose: 0.5 mg/kg/injection, schedule: Q01DX009 (ip), vehicle: saline 90 % of control | dose: 1.0 mg/kg/injection, schedule: Q01DX009 (ip), vehicle: saline 90 % of control | dose: 2.0 mg/kg/injection, schedule: Q01DX009 (ip), vehicle: saline 90 % of control

CC[N+](CC)(CC)CCCCC[N+](CC)(CC)CC
inactive: dose: 6.25 mg/kg/injection, schedule: Q04DX003 (ip), vehicle: water 104 % of control | dose: 12.5 mg/kg/injection, schedule: Q04DX003 (ip), vehicle: water 114 % of control | dose: 25.0 mg/kg/injection, schedule: Q04DX003 (ip), vehicle: water 100 % of control and 114 % of control

O=[N+]([O-])c1ccc(S)cc1
inactive: dose: 18.75 mg/kg/injection, schedule: Q01DX009 (ip), vehicle: saline sonified 100 % of control | dose: 37.5 mg/kg/injection, schedule: Q01DX009 (ip), vehicle: saline sonified 100 % of control | dose: 75.0 mg/kg/injection, schedule: Q01DX009 (ip), vehicle: saline sonified 117 % of control

O=C(NCCc1ccccc1)Nc1ccccc1
inactive: dose: 75.0 mg/kg/injection, schedule: Q01DX009 (ip), vehicle: saline with Tween-80 95 % of control | dose: 150.0 mg/kg/injection, schedule: Q01DX009 (ip), vehicle: saline with Tween-80 104 % of control | dose: 300.0 mg/kg/injection, schedule: Q01DX009 (ip), vehicle: saline with Tween-80 109 % of control

c1ccc(-c2nc3ccccc3nc2-c2ccc(Sc3ccc(-c4nc5ccccc5nc4-c4ccccc4)cc3)cc2)cc1
inactive: [3] 101 % of control | dose: 200.0 mg/kg/injection, schedule: Q01DX009 (ip), vehicle: saline with Tween-80 93 % of control

OC(CN1CC1)c1ccccc1 (stereo not drawn)
inactive: dose: 20.0 mg/kg/injection, schedule: Q04DX003 (ip), vehicle: saline 90 % of control | dose: 40.0 mg/kg/injection, schedule: Q04DX003 (ip), vehicle: saline 95 % of control | dose: 80.0 mg/kg/injection, schedule: Q04DX003 (ip), vehicle: saline 100 % of control

COC1=CC(=O)C(Cl)=C(OC)C1=O
inactive: dose: 0.78 mg/kg/injection, schedule: Q01DX009 (ip), vehicle: saline 113 % of control | dose: 1.56 mg/kg/injection, schedule: Q01DX009 (ip), vehicle: saline 113 % of control | dose: 3.13 mg/kg/injection, schedule: Q01DX009 (ip), vehicle: saline with Tween-80 110 % of control | dose: 3.13 mg/kg/injection, schedule: Q01DX009 (ip), vehicle: saline 104 % of control

C=C(C)CC#N
inactive: dose: 50.0 mg/kg/injection, schedule: Q04DX003 (ip), vehicle: saline 100 % of control | dose: 100.0 mg/kg/injection, schedule: Q04DX003 (ip), vehicle: saline 109 % of control | dose: 200.0 mg/kg/injection, schedule: Q04DX003 (ip), vehicle: saline 109 % of control

ClC1C2c3ccccc3C(C1Cl)[n+]1ccccc12 (stereo not drawn)
inactive: dose: 8.75 mg/kg/injection, schedule: Q01DX009 (ip), vehicle: Klucel (hydroxypropylcellulose) (HPC) 100 % of control | dose: 12.5 mg/kg/injection, schedule: Q04DX003 (ip), vehicle: Klucel (hydroxypropylcellulose) (HPC) 100 % of control | dose: 17.5 mg/kg/injection, schedule: Q01DX009 (ip), vehicle: Klucel (hydroxypropylcellulose) (HPC) 100 % of control | [6] 95 % of control

O=C(Nc1ccc(C(=O)Nc2cc(S(=O)(=O)O)cc3cccc(S(=O)(=O)O)c23)cc1)Nc1ccc(C(=O)Nc2cc(S(=O)(=O)O)cc3cccc(S(=O)(=O)O)c23)cc1
inactive: [4] 95 % of control | [7] 100 % of control | [5] 110 % of control | [8] 104 % of control | dose: 200.0 mg/kg/injection, schedule: Q04DX003 (ip), vehicle: Klucel (hydroxypropylcellulose) (HPC) 86 % of control

CCC(=O)OCc1c(C)nc2sccn12
inactive: dose: 25.0 mg/kg/injection, schedule: Q01DX001 (ip), vehicle: saline 96 % of control | dose: 50.0 mg/kg/injection, schedule: Q01DX001 (ip), vehicle: saline 102 % of control | dose: 100.0 mg/kg/injection, schedule: Q01DX001 (ip), vehicle: saline 105 % of control

c1ccc2c[n+]3cc4ccccc4cc3cc2c1
inactive: dose: 8.75 mg/kg/injection, schedule: Q01DX009 (ip), vehicle: saline 95 % of control | [2] 91 % of control | dose: 17.5 mg/kg/injection, schedule: Q01DX009 (ip), vehicle: saline 100 % of control | dose: 25.0 mg/kg/injection, schedule: Q04DX003 (ip), vehicle: saline 100 % of control

CCC1OCC(C(Cl)CCl)O1 (stereo not drawn)
inactive: [3] 118 % of control | dose: 100.0 mg/kg/injection, schedule: Q04DX003 (ip), vehicle: saline with Tween-80 113 % of control | dose: 200.0 mg/kg/injection, schedule: Q04DX003 (ip), vehicle: saline with Tween-80 118 % of control | dose: 400.0 mg/kg/injection, schedule: Q04DX003 (ip), vehicle: saline with Tween-80 104 % of control

O=[N+]([O-])c1cc([N+](=O)[O-])c(Br)cc1Cl
inactive: dose: 5.0 mg/kg/injection, schedule: Q01DX009 (ip), vehicle: Klucel (hydroxypropylcellulose) (HPC) 101 % of control | dose: 10.0 mg/kg/injection, schedule: Q01DX009 (ip), vehicle: Klucel (hydroxypropylcellulose) (HPC) 110 % of control | dose: 20.0 mg/kg/injection, schedule: Q01DX009 (ip), vehicle: Klucel (hydroxypropylcellulose) (HPC) 112 % of control

CN1C(c2ccc(Cl)cc2)OCC1(C)C (stereo not drawn)
inactive: dose: 50.0 mg/kg/injection, schedule: Q01DX001 (ip), vehicle: saline sonified 100 % of control | dose: 100.0 mg/kg/injection, schedule: Q01DX001 (ip), vehicle: saline sonified 100 % of control | dose: 200.0 mg/kg/injection, schedule: Q01DX001 (ip), vehicle: saline sonified 100 % of control
